The conditions of data set [1]: Battion et al. 1968; cited from earlier work.
Data set [2] is described as follows: Nitric oxide uptake/content of the emulsion by mass spectrometry. Conditions: equilibrated 60 minutes with 100 ppm nitric oxide in helium; ten samples.
Protocol: Some samples (1 ml each) were left open to air in 2.0 ml tubes for 30 minutes prior to dissolved gas analysis. In other experiments the emulsion was placed into a 15 ml tube. The headspace was filled with the gas under study and the gas was allowed to enter the emulsion by equilibration over 60 minutes with the tube on its side to increase the gas emulsion interaction. 50 μL drawn from each of these fluids were injected into a Sievers purge vessel at 37° C. containing 36 ml of a mildly acidic solution consisting of 32 ml of 1M HCL and 4 ml of 0.5M ascorbic acid. […] Signals generated at m/z=32 upon injection of RL and lipid emulsion samples were integrated using Peakfit and compared to those obtained with distilled water.
In another set of experiments we measured the uptake of nitric oxide by a commercially available 20% soybean oil emulsion, Liposyn III 20%. This emulsion contains 20% soybean oil, 1.2% egg phospholipids and 2.5% glycerin in water. Using NaOH pH was adjusted to 8.3. […] 100 ppm nitric oxide in helium was used to purge the headspace for two minutes taking care not to bubble the fluid. For sixty minutes the sample was allowed to reach gas-liquid equilibrium with the tube placed on its side to maximize gas-emulsion contact. The ***nitric oxide content was measured in ten samples that were equilibrated with nitric oxide and ten samples that were equilibrated with room air.
For data set [3] the following is noted: 1 atm; from The Engineering Toolbox; cited from earlier work.
The conditions of data set [4]: cited from earlier work.
For data set [5] the following is noted: published value; cited from earlier work.

Consider `O=O` [Oxygen], for which the “solubility in lipid relative to water” value in data set [1] was 4.41 times.

On to `O` [Water, water], for which, in data set [2], the “nitric oxide content, mean and standard error” value was 2.12×10^−3+/−0.17×10^−3. Moreover, the “Oxygen Content at 25° C. and Sea level Pressure” value in data set [3] is given as 8.3 mg/L. For the molecule `[Xe]` [Xenon], the “minimum alveolar concentration (MAC)” value in data set [4] (anesthetic) is reported as 71%. The “more potent than N2O as an anesthetic” value in data set [4] (in vivo) is given as 50%. For hemoglobin, the oxygen release time in data set [5] was 17.5 ms.
